Assay results: ChEMBL document CHEMBL1201862, “PubChem BioAssay data set” (2004)
The source made the active and inactive calls.

How the values were obtained:
[1] = biological target: T1, Hexokinase HKDC1 (Homo sapiens, UniProt Q2TB90); assay: HKDC1 hexokinase inhibitors, dose response, biochemical, W721R variant (AID 504729); type: functional
T1 sequence (Q2TB90 whole entry): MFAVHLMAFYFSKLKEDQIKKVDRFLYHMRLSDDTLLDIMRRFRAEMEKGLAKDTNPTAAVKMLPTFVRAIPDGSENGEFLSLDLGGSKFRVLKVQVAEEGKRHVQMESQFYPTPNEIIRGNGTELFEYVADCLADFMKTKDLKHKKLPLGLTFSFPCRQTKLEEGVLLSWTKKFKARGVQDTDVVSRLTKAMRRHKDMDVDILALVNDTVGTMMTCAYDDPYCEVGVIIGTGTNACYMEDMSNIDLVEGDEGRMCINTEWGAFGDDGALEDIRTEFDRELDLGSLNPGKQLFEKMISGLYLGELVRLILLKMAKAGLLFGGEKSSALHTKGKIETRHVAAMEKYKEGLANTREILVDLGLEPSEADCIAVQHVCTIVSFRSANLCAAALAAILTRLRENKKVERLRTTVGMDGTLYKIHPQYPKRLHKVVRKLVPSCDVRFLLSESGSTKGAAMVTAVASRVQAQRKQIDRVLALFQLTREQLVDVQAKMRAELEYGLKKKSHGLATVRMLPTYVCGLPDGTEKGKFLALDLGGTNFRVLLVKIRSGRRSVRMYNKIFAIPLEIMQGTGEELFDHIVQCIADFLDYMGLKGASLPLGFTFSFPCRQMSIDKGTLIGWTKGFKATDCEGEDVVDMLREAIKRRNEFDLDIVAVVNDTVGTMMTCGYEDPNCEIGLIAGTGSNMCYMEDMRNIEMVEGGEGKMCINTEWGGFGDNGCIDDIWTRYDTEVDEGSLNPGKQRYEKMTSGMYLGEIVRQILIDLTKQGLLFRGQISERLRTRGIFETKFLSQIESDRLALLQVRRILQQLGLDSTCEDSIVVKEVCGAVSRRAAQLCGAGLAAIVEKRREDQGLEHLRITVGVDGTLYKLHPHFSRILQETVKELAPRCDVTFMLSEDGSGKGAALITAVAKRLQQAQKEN

[2] = biological target: Tyrosyl-DNA phosphodiesterase 2 (Homo sapiens, UniProt O95551); assay: human TDP2 enzyme inhibitors, dose response, biochemical, epi absorbance, IC50 (AID 743297)
[3] = biological target: Genome polyprotein (dengue virus type 2, UniProt P29990); assay: Dengue-2 NS5 methyltransferase inhibitors, primary screen, biochemical, confirmation dose response (AID 588689); type: functional
[4] = cells; settings: A549
[5] = system: Vero; assay: cells; type: functional; settings: Chlorocebus sabaeus
[6] = system: BHK-21; assay: BHK-21 cell toxicity, dose response, cytotoxicity control, plate reader, cherry-pick samples (AID 687030); type: functional, cell-based; settings: Mesocricetus auratus
[7] = system: A549; assay: A549 cell toxicity, dose response, cytotoxicity control, plate reader, cherry-pick samples (AID 687028); type: functional, cell-based; settings: Homo sapiens
[8] = system: Vero; assay: Vero cell toxicity, dose response, cytotoxicity control, plate reader, cherry-pick samples (AID 687020); type: functional, cell-based; settings: Chlorocebus sabaeus
[9] = biological target: Endoplasmic reticulum aminopeptidase 1 (Homo sapiens, UniProt Q9NZ08); assay: ERAP1 aminopeptidase inhibitors, dose response, biochemical, cherry-pick, set 2, plate reader (AID 743314)
[10] = biological target: T2, CAAX prenyl protease 2 (Saccharomyces cerevisiae S288c, UniProt Q03530); type: biochemical
T2 sequence (Q03530 whole entry): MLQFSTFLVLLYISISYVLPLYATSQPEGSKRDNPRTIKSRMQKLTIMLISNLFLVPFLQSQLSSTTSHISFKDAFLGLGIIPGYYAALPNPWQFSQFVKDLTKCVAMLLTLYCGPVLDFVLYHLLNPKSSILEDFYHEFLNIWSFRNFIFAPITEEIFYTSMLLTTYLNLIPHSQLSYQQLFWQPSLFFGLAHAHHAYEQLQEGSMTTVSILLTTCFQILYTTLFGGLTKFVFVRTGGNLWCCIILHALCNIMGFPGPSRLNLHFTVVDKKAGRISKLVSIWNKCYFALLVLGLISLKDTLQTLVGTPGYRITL

[11] = HepG2 cell cytotoxicity, dose response, cytotoxicity control, ATP luminescence, cherry-pick, activator set 2 (AID 1053143); type: functional, cell-based
[12] = biological target: T3, Protein skinhead-1 (Caenorhabditis elegans, UniProt P34707); type: functional
T3 sequence (P34707 whole entry): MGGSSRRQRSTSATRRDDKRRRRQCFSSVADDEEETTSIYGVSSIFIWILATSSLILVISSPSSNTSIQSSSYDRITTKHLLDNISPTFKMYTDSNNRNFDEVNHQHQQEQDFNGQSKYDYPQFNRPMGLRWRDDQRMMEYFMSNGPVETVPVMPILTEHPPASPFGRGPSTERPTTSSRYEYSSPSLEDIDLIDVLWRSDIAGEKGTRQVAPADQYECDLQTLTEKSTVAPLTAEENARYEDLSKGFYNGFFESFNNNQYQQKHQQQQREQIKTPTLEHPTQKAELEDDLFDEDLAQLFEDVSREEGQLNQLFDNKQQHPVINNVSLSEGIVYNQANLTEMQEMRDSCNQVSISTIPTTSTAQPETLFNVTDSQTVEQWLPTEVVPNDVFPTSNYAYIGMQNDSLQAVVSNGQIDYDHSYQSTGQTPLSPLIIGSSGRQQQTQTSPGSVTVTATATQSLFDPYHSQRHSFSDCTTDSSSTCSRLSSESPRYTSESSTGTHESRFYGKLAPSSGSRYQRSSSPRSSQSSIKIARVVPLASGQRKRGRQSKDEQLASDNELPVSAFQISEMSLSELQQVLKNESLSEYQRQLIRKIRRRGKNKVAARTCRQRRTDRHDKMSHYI

[13] = biological target: T4, Polyadenylate-binding protein 1 (Homo sapiens, UniProt P11940); assay: PABP1 MLLE–PAM2 interaction inhibitors, dose response, miRNA deadenylation inhibitor project, biochemical, fluorescence polarization, Cy5-PAM2 peptide, secondary (AID 602260); type: functional; settings: read-out: IC50_Mean
[14] = biological target: T4, Polyadenylate-binding protein 1; assay: PABP1 MLLE–PAM2 binding inhibitor potency, dose response, biochemical, fluorescence polarization, FITC-PAM2 peptide (AID 602259); type: functional; settings: read-out: IC50_Mean
[15] = biological target: Botulinum neurotoxin type F (Clostridium botulinum, UniProt P30996); assay: High-throughput multiplex microsphere dose response for inhibitors of toxin protease, specifically Botulinum neurotoxin light chain F protease, compounds from Cherry Pick 02.; type: functional; settings: read-out: EC50_MICROM
[16] = HEK293 cell viability, dose response, counter-screen for EBV LMP1 inhibitor project, dry powder, set 2 (AID 624374); type: functional
[17] = lymphoblastoid cell cytotoxicity, dose response, cytotoxicity control, plate reader, dry powder, set 2 (AID 624367); type: functional
[18] = P. falciparum Dd2 growth inhibitors, dose response, SYBR Green, dry powder samples, set 9 (AID 1159568); type: functional, cell-based

T4 sequence (P11940 whole entry): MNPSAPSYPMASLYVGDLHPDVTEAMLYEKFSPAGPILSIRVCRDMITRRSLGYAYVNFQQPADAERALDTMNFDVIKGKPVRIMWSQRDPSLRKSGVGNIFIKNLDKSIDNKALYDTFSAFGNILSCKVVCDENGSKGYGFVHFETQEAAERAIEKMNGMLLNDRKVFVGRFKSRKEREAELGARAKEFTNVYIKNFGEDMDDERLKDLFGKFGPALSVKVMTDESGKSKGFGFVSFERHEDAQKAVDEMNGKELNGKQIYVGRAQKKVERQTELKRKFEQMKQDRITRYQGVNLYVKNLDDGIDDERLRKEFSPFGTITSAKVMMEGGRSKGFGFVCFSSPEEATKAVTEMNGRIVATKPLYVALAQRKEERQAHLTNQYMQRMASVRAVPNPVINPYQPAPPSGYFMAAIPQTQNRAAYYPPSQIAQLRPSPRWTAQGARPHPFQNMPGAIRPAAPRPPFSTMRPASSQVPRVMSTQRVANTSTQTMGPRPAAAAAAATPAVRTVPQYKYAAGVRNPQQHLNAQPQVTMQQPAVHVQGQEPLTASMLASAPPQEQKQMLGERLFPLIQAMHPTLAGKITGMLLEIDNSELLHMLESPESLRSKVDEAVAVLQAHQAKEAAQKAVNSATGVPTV
Tyrosyl-DNA phosphodiesterase 2, sequence (O95551 whole entry): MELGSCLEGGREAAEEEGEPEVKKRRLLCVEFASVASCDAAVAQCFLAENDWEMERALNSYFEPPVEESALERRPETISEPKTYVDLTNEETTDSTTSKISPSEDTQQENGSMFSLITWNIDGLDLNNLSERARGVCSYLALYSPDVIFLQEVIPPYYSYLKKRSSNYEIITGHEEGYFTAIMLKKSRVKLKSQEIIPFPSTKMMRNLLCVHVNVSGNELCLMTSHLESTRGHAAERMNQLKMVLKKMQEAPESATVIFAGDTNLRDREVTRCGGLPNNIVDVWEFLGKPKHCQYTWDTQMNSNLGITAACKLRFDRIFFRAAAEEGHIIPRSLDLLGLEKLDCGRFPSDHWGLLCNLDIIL
Botulinum neurotoxin type F, sequence (P30996 1-436 limits assumed): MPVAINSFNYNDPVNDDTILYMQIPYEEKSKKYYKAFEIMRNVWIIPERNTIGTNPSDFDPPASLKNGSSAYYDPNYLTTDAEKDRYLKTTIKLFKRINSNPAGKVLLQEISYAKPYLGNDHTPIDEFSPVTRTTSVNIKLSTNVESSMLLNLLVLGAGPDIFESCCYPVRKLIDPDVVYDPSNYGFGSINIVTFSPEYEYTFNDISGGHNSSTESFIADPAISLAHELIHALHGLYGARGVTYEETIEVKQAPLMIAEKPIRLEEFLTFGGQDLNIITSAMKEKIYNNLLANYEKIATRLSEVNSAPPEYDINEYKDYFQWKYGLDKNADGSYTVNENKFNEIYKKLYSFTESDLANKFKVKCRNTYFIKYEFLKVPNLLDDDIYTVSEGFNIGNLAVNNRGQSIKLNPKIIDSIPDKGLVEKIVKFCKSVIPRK
Genome polyprotein, sequence (P29990 2492-3391 limits assumed): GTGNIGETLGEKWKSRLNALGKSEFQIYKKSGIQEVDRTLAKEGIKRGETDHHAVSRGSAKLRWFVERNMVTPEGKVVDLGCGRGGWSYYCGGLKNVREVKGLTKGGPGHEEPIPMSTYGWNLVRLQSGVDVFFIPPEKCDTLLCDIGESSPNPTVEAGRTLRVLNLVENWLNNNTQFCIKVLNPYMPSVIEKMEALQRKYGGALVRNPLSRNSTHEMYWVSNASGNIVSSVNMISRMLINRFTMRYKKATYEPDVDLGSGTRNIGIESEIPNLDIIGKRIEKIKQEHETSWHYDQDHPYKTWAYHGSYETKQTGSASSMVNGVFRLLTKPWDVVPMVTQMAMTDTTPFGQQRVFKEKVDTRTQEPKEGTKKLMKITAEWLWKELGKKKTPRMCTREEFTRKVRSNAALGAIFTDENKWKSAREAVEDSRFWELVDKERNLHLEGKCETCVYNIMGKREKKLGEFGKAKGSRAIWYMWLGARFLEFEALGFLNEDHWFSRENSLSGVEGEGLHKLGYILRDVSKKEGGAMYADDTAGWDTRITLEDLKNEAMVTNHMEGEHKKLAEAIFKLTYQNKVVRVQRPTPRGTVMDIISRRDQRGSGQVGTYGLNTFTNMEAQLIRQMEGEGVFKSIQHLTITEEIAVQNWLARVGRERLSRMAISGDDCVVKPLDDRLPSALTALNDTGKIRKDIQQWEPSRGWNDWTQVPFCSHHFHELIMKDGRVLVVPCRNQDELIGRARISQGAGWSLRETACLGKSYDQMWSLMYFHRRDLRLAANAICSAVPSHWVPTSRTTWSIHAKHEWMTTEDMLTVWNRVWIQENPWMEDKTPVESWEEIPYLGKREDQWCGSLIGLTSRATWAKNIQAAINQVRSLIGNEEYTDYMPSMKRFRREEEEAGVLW
Endoplasmic reticulum aminopeptidase 1, sequence (Q9NZ08 whole entry): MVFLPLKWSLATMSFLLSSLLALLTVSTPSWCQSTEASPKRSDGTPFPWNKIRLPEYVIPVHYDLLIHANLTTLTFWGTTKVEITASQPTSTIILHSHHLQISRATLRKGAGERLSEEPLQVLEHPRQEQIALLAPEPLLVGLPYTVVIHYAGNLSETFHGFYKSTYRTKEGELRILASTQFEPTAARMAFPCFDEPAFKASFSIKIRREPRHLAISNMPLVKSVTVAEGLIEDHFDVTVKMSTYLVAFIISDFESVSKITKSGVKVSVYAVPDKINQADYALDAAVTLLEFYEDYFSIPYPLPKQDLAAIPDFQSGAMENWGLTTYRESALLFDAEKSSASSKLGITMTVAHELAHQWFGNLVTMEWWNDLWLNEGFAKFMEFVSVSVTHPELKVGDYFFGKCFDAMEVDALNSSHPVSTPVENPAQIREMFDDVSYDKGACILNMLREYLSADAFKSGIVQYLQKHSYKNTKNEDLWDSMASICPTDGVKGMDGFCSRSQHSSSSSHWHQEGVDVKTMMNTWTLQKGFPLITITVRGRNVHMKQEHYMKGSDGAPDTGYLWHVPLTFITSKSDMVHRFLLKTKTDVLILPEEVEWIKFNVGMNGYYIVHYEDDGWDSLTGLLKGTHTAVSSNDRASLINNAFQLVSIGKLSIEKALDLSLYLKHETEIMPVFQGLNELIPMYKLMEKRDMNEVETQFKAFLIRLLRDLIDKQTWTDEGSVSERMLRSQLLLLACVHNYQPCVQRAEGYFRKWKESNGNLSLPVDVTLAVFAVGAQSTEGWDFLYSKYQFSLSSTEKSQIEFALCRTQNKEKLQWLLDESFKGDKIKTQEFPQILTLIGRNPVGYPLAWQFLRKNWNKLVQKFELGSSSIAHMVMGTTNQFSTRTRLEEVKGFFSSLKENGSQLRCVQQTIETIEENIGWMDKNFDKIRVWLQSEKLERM

O=S(=O)(Nc1ccc(O)c2ccccc12)c1cccs1
IC50 [1]: 9.75 µM (active)
IC50 [2]: > 128 µM (inactive)
IC50 [3]: 62.6 µM (active)

Cc1ccc2c(c1)N(C(=O)CCC(=O)NCCCN1CCOCC1)CC(C)O2 (stereo not drawn)
AC50 [4]: > 52 µM (inactive)

CN(C)CCCN1c2ccccc2Sc2ccc3ccccc3c21
CC50 [5]: 16.2 µM (active)
AC50 [6]: 36 µM (active)

Cc1ccc(C(C)C)c(OCCNC(=O)c2ccccc2O)c1
AC50 [7]: 2.13 µM (active)
AC50 [8]: 1.45 µM (active)

CCOC(=O)C[n+]1ccc2c([nH]c3ccccc32)c1C
AC50 [9]: 11.4 µM (active)
AC50 [10]: > 100 µM (inactive)

O=C(Nc1ncccc1O)c1ccc(Oc2ccccc2)cc1
AC50 [11]: 26 µM (active)

Cc1cc2cc(CNC(=O)c3ccc(S(=O)(=O)N(C)C)cc3)ccc2n1C
IC50 [12]: > 100 µM (inactive)
IC50 [13]: > 66 µM (inactive)
IC50 [14]: > 66 µM (inactive)
EC50 [15]: > 20 µM (inactive)

CC(C)(C)[S@+]([O-])N1Cc2cc(C(=O)NCC(F)(F)F)nc(-c3cccc(-c4cccc(F)c4)c3)c2[C@@H]1CCO
AbsAC35 [16]: 111.16 µM
AbsAC35 [17]: 124.56 µM
AC50 [18]: 6.29 µM (active)
